Data reported in PMC7935272 (PLoS Pathogens, 2021).
Where “and” joins values, the source holds several entries; their conditions need not be identical. Equal entries are not always repeated.

What was measured:
MeV L = molecular target: T1, MeV L (Measles virus, UniProt P12576); test: MeV minigenome dose-response assay, L WT; assay type: cell-based; conditions: for minigenome activity, individual repeat: WT, Figure 1E
T1 construct: expressed in transfected cells; host or cells: BSR-T7/5

MeV L H589Y = molecular target: T2, MeV L H589Y (Measles virus, UniProt P12576, H589Y); test: MeV minigenome dose-response assay, L H589Y; assay type: cell-based; conditions: for minigenome activity, individual repeat: H589Y, Figure 1E
T2 construct: expressed in transfected cells; host or cells: BSR-T7/5

MeV L S768A = molecular target: T3, MeV L S768A (Measles virus, UniProt P12576, S768A); test: MeV minigenome dose-response assay, L S768A; assay type: cell-based
T3 construct: expressed in transfected cells; host or cells: BSR-T7/5

MeV L T776A = molecular target: T4, MeV L T776A (Measles virus, UniProt P12576, T776A); test: MeV minigenome dose-response assay, L T776A; assay type: cell-based
T4 construct: expressed in transfected cells; host or cells: BSR-T7/5

MeV L L1170F = molecular target: T5, MeV L L1170F (Measles virus, UniProt P12576, L1170F); test: MeV minigenome dose-response assay, L L1170F; assay type: cell-based; conditions: for minigenome activity, individual repeat: Figure 1E
T5 construct: expressed in transfected cells; host or cells: BSR-T7/5

MeV L V1239A = molecular target: T6, MeV L V1239A (Measles virus, UniProt P12576, V1239A); test: MeV minigenome dose-response assay, L V1239A; assay type: cell-based; conditions: for minigenome activity, individual repeat: Figure 1E
T6 construct: expressed in transfected cells; host or cells: BSR-T7/5

MeV L E858D [1] = molecular target: T7, MeV L E858D (Measles virus, UniProt P12576, E858D); test: MeV minigenome dose-response assay, L E858D; assay type: cell-based; conditions: EC50, L E858D vs WT
T7 construct: expressed in transfected cells; host or cells: BSR-T7/5

MeV L I1009F [2] = molecular target: T8, MeV L I1009F (Measles virus, UniProt P12576, I1009F); test: MeV minigenome dose-response assay, L I1009F; assay type: cell-based; conditions: EC50, L I1009F vs WT
T8 construct: expressed in transfected cells; host or cells: BSR-T7/5

MeV L T1010N [3] = molecular target: T9, MeV L T1010N (Measles virus, UniProt P12576, T1010N); test: MeV minigenome dose-response assay, L T1010N; assay type: cell-based; conditions: EC50, L T1010N vs WT
T9 construct: expressed in transfected cells; host or cells: BSR-T7/5

MeV L Y1106S [4] = molecular target: T10, MeV L Y1106S (Measles virus, UniProt P12576, Y1106S); test: MeV minigenome dose-response assay, L Y1106S; assay type: cell-based; conditions: EC50, L Y1106S vs WT
T10 construct: expressed in transfected cells; host or cells: BSR-T7/5

MeV L E858D [5] = molecular target: T7, MeV L E858D; set-up: method as in PMID 32661315; conditions: minigenome, reported previously ref 36; cited from earlier work
MeV L I1009F [6] = molecular target: T8, MeV L I1009F; set-up: method as in PMID 32661315; conditions: minigenome, reported previously ref 36; cited from earlier work
MeV L T1010N [7] = molecular target: T9, MeV L T1010N; set-up: method as in PMID 32661315; conditions: minigenome, reported previously ref 36; cited from earlier work
MeV L Y1106S [8] = molecular target: T10, MeV L Y1106S; set-up: method as in PMID 32661315; conditions: minigenome, reported previously ref 36; cited from earlier work
MeV L1708 = MeV L1708 (Measles virus, UniProt Q9WMB3); set-up: method as in PMID 32661315; conditions: BLI, MeV L1708 WT; reported previously ref 36; cited from earlier work
MeV L1708 E858D = molecular target: MeV L1708 E858D; set-up: method as in PMID 32661315; conditions: BLI, reported previously ref 36; cited from earlier work
MeV L1708 I1009F = molecular target: MeV L1708 I1009F; set-up: method as in PMID 32661315; conditions: BLI, reported previously ref 36; cited from earlier work
MeV L1708 Y1106S = molecular target: MeV L1708 Y1106S; set-up: method as in PMID 32661315; conditions: BLI, reported previously ref 36; cited from earlier work

Compound: NC(=O)c1c(F)cccc1-c1cccc2cnccc12 [GHP-88309]
- minigenome activity, individual repeat (MeV L; GHP-88309 0.411523 µM): 87.746 and 92.4701
- minigenome activity, individual repeat (MeV L; GHP-88309 1.23457 µM): 77.6244 and 62.4876 and 68.5227 and 90 and 86 and 112
- minigenome activity, individual repeat (MeV L; GHP-88309 3.7037 µM): 31.991 and 34.7895 and 30.6512 and 25 and 32 and 29
- minigenome activity, individual repeat (MeV L; GHP-88309 11.1111 µM): 2.411 and 2.106 and 2.445 and 2 and 4 and 3
- minigenome activity, individual repeat (MeV L; GHP-88309 33.3333 µM): 1.248 and 0.5543 and 0.7091 and -4 and 2 and 3
- minigenome activity, individual repeat (MeV L; GHP-88309 100 µM): 0.7732 and 1.544 and 0.3453
- EC50 (MeV L; minigenome, L WT): 2.4 µM
- fold change to WT (MeV L H589Y; EC50, L H589Y vs WT): 1.8
- minigenome activity, individual repeat (MeV L H589Y; GHP-88309 0.0457247 µM): 99.134 and 165.3 and 161.609
- minigenome activity, individual repeat (MeV L H589Y; GHP-88309 0.137174 µM): 129.072 and 126.646 and 70.0978
- minigenome activity, individual repeat (MeV L H589Y; GHP-88309 0.411523 µM): 102.614 and 60.5017 and 60.0219
- minigenome activity, individual repeat (MeV L H589Y; GHP-88309 1.23457 µM): 96.1391 and 78.5761 and 76.4935
- minigenome activity, individual repeat (MeV L H589Y; GHP-88309 3.7037 µM): 76.5304 and 44.0459 and 30.8961
- minigenome activity, individual repeat (MeV L H589Y; GHP-88309 11.1111 µM): 19.3913 and 21.0627 and 38.9421
- minigenome activity, individual repeat (MeV L H589Y; GHP-88309 33.3333 µM): 3.067 and 1.981 and 4.217
- minigenome activity, individual repeat (MeV L H589Y; GHP-88309 100 µM): -0.2175 and 2.229 and 0.06723
- EC50 (MeV L H589Y; minigenome, L H589Y): 3.91 µM
- fold change to WT (MeV L S768A; EC50, L S768A vs WT): 0.6
- EC50 (MeV L S768A; minigenome, L S768A): 1.26 µM
- fold change to WT (MeV L T776A; EC50, L T776A vs WT): 1.1
- EC50 (MeV L T776A; minigenome, L T776A): 2.39 µM
- fold change to WT (MeV L L1170F; EC50, L L1170F vs WT): 0.7
- minigenome activity, individual repeat (MeV L L1170F; GHP-88309 0.0457247 µM, L L1170F): 120 and 119 and 105
- minigenome activity, individual repeat (MeV L L1170F; GHP-88309 0.137174 µM, L L1170F): 97 and 98 and 103
- minigenome activity, individual repeat (MeV L L1170F; GHP-88309 0.411523 µM, L L1170F): 56 and 67 and 65
- minigenome activity, individual repeat (MeV L L1170F; GHP-88309 1.23457 µM, L L1170F): 92 (2×) and 86
- minigenome activity, individual repeat (MeV L L1170F; GHP-88309 3.7037 µM, L L1170F): 27 and 26 and 21
- minigenome activity, individual repeat (MeV L L1170F; GHP-88309 11.1111 µM, L L1170F): 0 (2×) and 1
- minigenome activity, individual repeat (MeV L L1170F; GHP-88309 33.3333 µM, L L1170F): -1 and 0 (2×)
- EC50 (MeV L L1170F; minigenome, L L1170F): 2.41 µM
- fold change to WT (MeV L V1239A; EC50, L V1239A vs WT): 0.7
- minigenome activity, individual repeat (MeV L V1239A; GHP-88309 0.0457247 µM, L V1239A): 96 and 97 and 118
- minigenome activity, individual repeat (MeV L V1239A; GHP-88309 0.137174 µM, L V1239A): 120 and 103
- minigenome activity, individual repeat (MeV L V1239A; GHP-88309 0.411523 µM, L V1239A): 66 and 59 (2×)
- minigenome activity, individual repeat (MeV L V1239A; GHP-88309 1.23457 µM, L V1239A): 80 and 79 (2×)
- minigenome activity, individual repeat (MeV L V1239A; GHP-88309 3.7037 µM, L V1239A): 33 (2×) and 30
- minigenome activity, individual repeat (MeV L V1239A; GHP-88309 11.1111 µM, L V1239A): 2 (2×) and 3
- minigenome activity, individual repeat (MeV L V1239A; GHP-88309 33.3333 µM, L V1239A): -2 and 1 (2×)
- EC50 (MeV L V1239A; minigenome, L V1239A): 2.03 µM
- fold change to WT (MeV L E858D [1]): 6.7
- fold change to WT (MeV L I1009F [2]): 8.3
- fold change to WT (MeV L T1010N [3]): 3.8
- fold change to WT (MeV L Y1106S [4]): >50
- EC50 (MeV L E858D [5]): 15 µM
- EC50 (MeV L I1009F [6]): 18.6 µM
- EC50 (MeV L T1010N [7]): 8.36 µM
- EC50 (MeV L Y1106S [8]): > 100 µM
- Kd (MeV L1708): 6.2 µM
- Kd (MeV L1708 E858D): 8.6 µM
- Kd (MeV L1708 I1009F): 68.3 µM
- Kd (MeV L1708 Y1106S): > 300 µM
